Assay [1] addresses T1, μ-opioid receptor (MOR) (Homo sapiens, UniProt P35372).
T1 construct: host or cells: cAMP Hunter CHO-K1 OPRM1 Gαi cell line
Description: MOR agonist cAMP assay (HitHunter cAMP, forskolin-stimulated). It is filed as cell-based. The protocol:
The HitHunter® cAMP chemiluminescent assay kit (DiscoveRx, Cat# 90-0075 SM25) was used to detect cAMP production in cAMP Hunter™ Gαi cell lines over expressing either Human-ORPM1 (Discoverx, Catalog# 95-0107C2) or Human-ORPD1 (DiscoveRx, Catalog# 95-0108C2). Opioid agonist binding to the Gαi receptors inhibits the intracellular cAMP accumulation induced by forskolin, which activates adenylate cyclase and increases intracellular levels of cAMP.
Cells were cultured in media consisting of Ham's F-12 Nutrient Mix (Life Technologies, Catalog#31765035), 10% FBS (Life Technologies, Catalog# 16140-071), 4 mM GlutaMAX (Life Technologies, Catalog#35050-061), […] (Life Technologies), 100 ug/ml of Penn-Strep (Life Technologies) and 0.5 mg/ml Geneticin (Life Technologies, Catalog# 10131-027). The cultures were maintained at 37° C. under 5% CO2.
In preparation for cAMP assay, the cells were seeded at a density of 300,000 cells/ml in 100 ul of media/well in 96-well microplate. Wells that were designated for cAMP standards were left empty.
Opioid agonist serial dilutions were prepared in separate dilution plate (11-point series of 3× (3-fold) dilution) in Cell Assay buffer, including 3× forskolin for Gαi target. For Hunter CHO-K1 OPRM1 or CHO-K1 OPRD1 Gαi Cell Lines, the final forskolin concentration was 20 uM.
15 ul of each 3× opioid agonist serial dilution was added in the presence of forskolin in duplicate to the designated wells. The final concentration of each dilution was at 3× of the final screening concentration. The assay plate was incubated for 30 min, at 37° C. under 5% CO2.
Cellular cAMP concentrations were measured using the HitHunter cAMP Assay kit following the manufacturer's protocol. HitHunter cAMP assay is a gain-of-signal competitive immunoassay based on Enzyme Fragment Complementation (EFC) technology. The kit uses β-galactosidase (β-gal) enzyme split into Enzyme Donor (ED) and Enzyme Acceptor (EA). The cellular cAMP and ED-labelled cAMP compete for anti-cAMP antibody. […] When cellular cAMP level is high, it competes for the anti-cAMP antibody, thereby releasing ED-cAMP to complement with EA to produce a luminescent signal. The amount of signal is directly proportional to the amount of cAMP in cells and can be quantified using cAMP standards. The assay plates were read using a PerkinElmer Envision instrument to detect the chemiluminescence signal in each well (luminescence reader at 0.1 to 1 second/well). Data analysis was performed using Graphpad Prism 7.EC50 was calculated by nonlinear regression, using the four-parameter hill equation.

Assay [2] deals with T2, δ-opioid receptor (DOR) (Homo sapiens, UniProt P41143).
T2 construct: host or cells: cAMP Hunter CHO-K1 OPRD1 Gαi cell line
T2 sequence (P41143 whole entry): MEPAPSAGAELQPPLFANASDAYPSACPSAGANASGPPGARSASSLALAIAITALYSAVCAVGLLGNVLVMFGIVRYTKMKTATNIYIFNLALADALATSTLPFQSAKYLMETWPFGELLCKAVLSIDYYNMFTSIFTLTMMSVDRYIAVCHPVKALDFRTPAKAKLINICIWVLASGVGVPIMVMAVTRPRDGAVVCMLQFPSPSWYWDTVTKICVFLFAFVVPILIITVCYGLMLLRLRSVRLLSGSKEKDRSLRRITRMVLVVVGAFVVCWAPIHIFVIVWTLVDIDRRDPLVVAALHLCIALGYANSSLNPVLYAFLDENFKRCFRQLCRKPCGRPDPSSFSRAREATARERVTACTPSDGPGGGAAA
Description: DOR agonist cAMP assay (HitHunter cAMP, forskolin-stimulated). It is filed as cell-based. An outline of the steps: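 CHO-K1 Gαi cells expressing OPRM1 or OPRD1 were exposed 30 min at 37° C to 11-point threefold agonist dilutions, in duplicate, with 20 uM forskolin final. cAMP quantified by EFC chemiluminescent competitive immunoassay against cAMP standards. EC50 by four-parameter Hill nonlinear regression.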
A general note: Cyclic AMP is a second messenger, typically raised through Gs and lowered through Gi signalling.

Numbered stars: 1 amine (or outer) side, 2 acyl side, 3 side chain; on linkers, the order of the positions; unused ones are H or OH. Bridge positions count the residues as written; N and C are the ends. Square brackets hold non-standard residues; d marks the D form. Peptide text beside a SMILES is read from it. I, II: the chains in the order shown. Bip = N[C@@H](Cc1ccc(-c2ccccc2)cc1)C(=O)O; Phe(4-CN) = N#Cc1ccc(C[C@H](N)C(=O)O)cc1; Diglycolyl = O=C(COCC(=O)[*:2])[*:1]; Dmt = Cc1cc(O)cc(C)c1C[C@H](N)C(=O)O; hPhe = N[C@@H](CCc1ccccc1)C(=O)O; dTic = O=C(O)[C@H]1Cc2ccccc2CN1; β3hF = N[C@H](CC(=O)O)Cc1ccccc1; Nle = CCCC[C@H](N)C(=O)O; Sar = CNCC(=O)O

T1 sequence (P35372 whole entry): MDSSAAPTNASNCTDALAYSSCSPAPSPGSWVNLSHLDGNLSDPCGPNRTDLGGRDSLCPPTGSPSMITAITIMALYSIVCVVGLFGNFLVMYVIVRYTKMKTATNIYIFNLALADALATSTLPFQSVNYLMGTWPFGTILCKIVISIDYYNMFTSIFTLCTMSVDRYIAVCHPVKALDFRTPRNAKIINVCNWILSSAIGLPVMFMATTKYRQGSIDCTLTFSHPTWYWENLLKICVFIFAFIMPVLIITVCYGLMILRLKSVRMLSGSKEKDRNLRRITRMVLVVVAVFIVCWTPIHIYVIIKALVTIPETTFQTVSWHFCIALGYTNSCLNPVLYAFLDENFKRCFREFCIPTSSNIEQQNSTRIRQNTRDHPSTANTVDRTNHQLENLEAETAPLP

A word on the EC50: it is the concentration at which the effect is half-maximal. Low values mean higher potency in that assay, high ones lower potency in that assay. Consider `Cc1cc(O)cc(C)c1C[C@H](N)C(=O)N[C@H](CCCNC(=N)N)C(=O)N[C@@H](Cc1c[nH]cn1)C(=O)N[C@@H](CCCCN)C(N)=O` [compound 4] (H-[Dmt][dR]HK-NH2), for which the EC50 in assay [1] was 10 to 50 nM; in assay [2], more than 200 nM.

Turning to `CC[C@H](C)[C@@H](C(=O)O)N(C)C(=O)C[C@H](Cc1ccccc1)NC(=O)CNC(=O)[C@@H](CC(=O)O)NC(=O)[C@@H](N)Cc1c(C)cc(O)cc1C` [compound 172], the half-maximal effective concentration (EC50) in assay [1] and in assay [2] was less than 1 nM each time.

For the compound `Cc1cc(O)cc(C)c1C[C@H](N)C(=O)NC(C)(C)C(=O)NCC(=O)N[C@H](CC(=O)N(C)CC(N)=O)Cc1ccccc1` [compound 90], the EC50 in assay [1] was less than 1 nM; in assay [2], 1 to 10 nM.

As for `Cc1cc(O)cc(C)c1C[C@H](N)C(=O)N[C@H](CCCNC(=N)N)C(=O)N[C@@H](Cc1ccc(-c2ccccc2)cc1)C(=O)N[C@@H](CCCCN)C(N)=O` [compound 3] (H-[Dmt][dR][Bip]K-NH2), the EC50 is 50 to 200 nM in assay [1] and more than 200 nM in assay [2].

Take `CCCC[C@H](NC(=O)[C@H](CCc1ccccc1)NC(=O)[C@@H](C)NC(=O)[C@@H](N)Cc1c(C)cc(O)cc1C)C(N)=O` [compound 48] (H-[Dmt][dA][hPhe][Nle]-NH2): the EC50 in assay [1] and in assay [2] was less than 1 nM each time.

`CC[C@H](C)[C@@H](C(=O)O)N(C)C(=O)C[C@H](Cc1ccccc1)NC(=O)CNC(=O)[C@@H](C)NC(=O)[C@@H](N)Cc1c(C)cc(C(N)=O)cc1C` [compound 95]: the EC50 in assay [1] is less than 1 nM; in assay [2], 1 to 10 nM.

Consider `Cc1cc(O)cc(C)c1C[C@H](N)C(=O)N[C@H](C)C(=O)NCC(=O)N[C@H](CC(=O)N(C)CC(=O)N[C@H](CCCCNC(=O)COCC(=O)NCCCC[C@@H](NC(=O)CN(C)C(=O)C[C@H](Cc1ccccc1)NC(=O)CNC(=O)[C@@H](C)NC(=O)[C@@H](N)Cc1c(C)cc(O)cc1C)C(N)=O)C(N)=O)Cc1ccccc1` [compound 271] (I: H-[Dmt][dA]G[β3hF][Sar][dK]-NH2 / II: H-[Dmt][dA]G[β3hF][Sar][dK]-NH2; linker I:6-II:6 via Diglycolyl), for which the EC50 in assay [1] and in assay [2] was 1 to 10 nM throughout.

`Cc1cc(O)cc(C)c1C[C@H](N)C(=O)N[C@H](C)C(=O)NCC(=O)N[C@H](CC(=O)N(C)[C@@H](CC1CCCCC1)C(=O)O)Cc1ccccc1` [compound 156]: the results for the EC50 in assay [1] and in assay [2] were less than 1 nM and 1 to 10 nM, respectively.

Regarding `Cc1cc(O)cc(C)c1C[C@H](N)C(=O)N[C@H](C)C(=O)N[C@@H](CCc1ccccc1)C(=O)N(C)CC(N)=O` [compound 46] (H-[Dmt][dA][hPhe][Sar]-NH2), the EC50 in assay [1] and in assay [2] was less than 1 nM each time.

On to `CCCC[C@@H](C(=O)O)N(C)C(=O)C[C@H](Cc1ccccc1F)NC(=O)CNC(=O)[C@@H](C)NC(=O)[C@@H](N)Cc1c(C)cc(O)cc1C` [compound 143], for which the EC50 in assay [1] and in assay [2] was less than 1 nM in each case.

As for `Cc1cc(O)cc(C)c1C[C@H](N)C(=O)N1Cc2ccccc2C[C@@H]1C(=O)N[C@@H](Cc1ccccc1)C(=O)N(C)CC(N)=O` [compound 44] (H-[Dmt][dTic]F[Sar]-NH2), the EC50 in assay [1] was less than 1 nM; in assay [2], 1 to 10 nM.

With `CCCC[C@@H](C(=O)O)N(C)C(=O)C[C@H](Cc1ccc(C)cc1)NC(=O)CNC(=O)[C@@H](C)NC(=O)[C@@H](N)Cc1c(C)cc(O)cc1C` [compound 142], the EC50 in assay [1] is 1 to 10 nM; in assay [2] it was less than 1 nM.

Regarding `Cc1cc(O)cc(C)c1C[C@H](N)C(=O)N[C@H](CCCNC(=N)N)C(=O)N[C@@H](Cc1ccccc1)C(=O)N(C)CC(N)=O` [compound 9] (H-[Dmt][dR]F[Sar]-NH2), the EC50 in assay [1] is less than 1 nM; in assay [2], 1 to 10 nM.

For `Cc1cc(O)cc(C)c1C[C@H](N)C(=O)N[C@H](CCC(=O)O)C(=O)NCC(=O)N[C@H](CC(=O)N(C)[C@@H](C)C(=O)O)Cc1ccccc1` [compound 185], the EC50 was 1 to 10 nM in assay [1] and less than 1 nM in assay [2].

For `Cc1cc(O)cc(C)c1C[C@H](N)C(=O)N[C@H](CCCNC(=N)N)C(=O)N[C@@H](Cc1ccc(C#N)cc1)C(=O)N(C)CC(N)=O` [compound 20] (H-[Dmt][dR][Phe(4-CN)][Sar]-NH2), the EC50 is 1 to 10 nM in assay [1] and less than 1 nM in assay [2].

With `CCCC[C@@H](C(=O)O)N(C)C(=O)C[C@H](Cc1ccc(I)cc1)NC(=O)CNC(=O)[C@@H](C)NC(=O)[C@@H](N)Cc1c(C)cc(C(N)=O)cc1C` [compound 136], the EC50 in assay [1] and in assay [2] was less than 1 nM in each case.

Turning to `Cc1cc(O)cc(C)c1C[C@H](N)C(=O)N[C@H](C)C(=O)N[C@@H](CC(C)C)C(=O)N[C@H](CC(=O)N(C)CC(N)=O)Cc1ccccc1` [compound 67] (H-[Dmt][dA]L[β3hF][Sar]-NH2), the values for the EC50 in assay [1] and in assay [2] were less than 1 nM and 10 to 50 nM, respectively.

`CCCC[C@@H](C(=O)O)N(C)C(=O)C[C@H](Cc1ccccc1Br)NC(=O)CNC(=O)[C@@H](C)NC(=O)[C@@H](N)Cc1c(C)cc(O)cc1C` [compound 146]: the EC50 in assay [1] and in assay [2] was less than 1 nM in each case.

Regarding `Cc1cc(O)cc(C)c1C[C@H](N)C(=O)N[C@H](CC(=O)O)C(=O)NCC(=O)N[C@H](CC(=O)N(C)[C@@H](CC(C)C)C(=O)O)Cc1ccccc1` [compound 169], the concentration for a half-maximal effect (EC50) in assay [1] and in assay [2] was less than 1 nM each time.

Consider `Cc1cc(C(N)=O)cc(C)c1C[C@H](N)C(=O)N1Cc2ccccc2C[C@H]1C(=O)NCC(=O)N[C@H](CC(=O)N(C)CC(N)=O)Cc1ccccc1` [compound 103], for which the EC50 in assay [1] and in assay [2] was 50 to 200 nM in each case.

`Cc1cc(C(N)=O)cc(C)c1C[C@H](N)C(=O)N[C@H](C)C(=O)NCC(=O)N1Cc2ccccc2C[C@H]1C(=O)N(C)CC(N)=O` [compound 108]: the figures for the EC50 in assay [1] and in assay [2] were 1 to 10 nM and 10 to 50 nM, respectively.

On to `CCCC[C@@H](C(=O)O)N(C)C(=O)C[C@H](Cc1c[nH]c2ccccc12)NC(=O)CNC(=O)[C@@H](C)NC(=O)[C@@H](N)Cc1c(C)cc(O)cc1C` [compound 153], for which the EC50 in assay [1] is 1 to 10 nM; in assay [2], less than 1 nM.

As for `CC[C@H](C)[C@H](NC(=O)[C@@H](C)NC(=O)[C@@H](N)Cc1c(C)cc(O)cc1C)C(=O)N[C@H](CC(=O)N(C)CC(N)=O)Cc1ccccc1` [compound 68] (H-[Dmt][dA]I[β3hF][Sar]-NH2), the EC50 in assay [1] is less than 1 nM; in assay [2], 10 to 50 nM.

Regarding `Cc1cc(O)cc(C)c1C[C@H](N)C(=O)N[C@H](C)C(=O)NCC(=O)N[C@H](CC(=O)N(C)[C@@H](Cc1ccc(O)cc1)C(=O)O)Cc1ccccc1` [compound 160], the EC50 in assay [1] and in assay [2] was less than 1 nM in each case.

On to `Cc1cc(O)cc(C)c1C[C@H](N)C(=O)N[C@H](CCC(=O)O)C(=O)NCC(=O)N[C@H](CC(=O)N(C)CC(N)=O)Cc1ccccc1` [compound 187], for which the EC50 was less than 1 nM in assay [1] and 1 to 10 nM in assay [2].

Consider `Cc1cc(O)cc(C)c1C[C@H](N)C(=O)N[C@H](CC(=O)O)C(=O)NCC(=O)N[C@H](CC(=O)N(C)[C@@H](CC1CCCCC1)C(=O)O)Cc1ccccc1` [compound 175], for which the EC50 in assay [1] and in assay [2] was less than 1 nM throughout.

For `CCCC[C@@H](C(=O)O)N(C)C(=O)C[C@H](Cc1ccccc1)NC(=O)CNC(=O)[C@@H](CC(=O)O)NC(=O)[C@@H](N)Cc1c(C)cc(O)cc1C` [compound 178], the EC50 in assay [1] and in assay [2] was less than 1 nM each time.

As to `Cc1cc(O)cc(C)c1C[C@H](N)C(=O)N1Cc2ccccc2C[C@H]1C(=O)NCC(=O)N[C@H](CC(=O)N(C)CC(N)=O)Cc1ccccc1` [compound 104], the EC50 in assay [1] and in assay [2] was 50 to 200 nM throughout.

Regarding `CCC[C@@H](C(=O)O)N(C)C(=O)C[C@H](Cc1ccccc1)NC(=O)CNC(=O)[C@@H](CC(=O)O)NC(=O)[C@@H](N)Cc1c(C)cc(O)cc1C` [compound 174], the EC50 in assay [1] and in assay [2] was less than 1 nM throughout.

Regarding `Cc1cc(C(N)=O)cc(C)c1C[C@H](N)C(=O)N[C@H](C)C(=O)NCC(=O)N[C@H](CC(=O)N(C)[C@@H](Cc1c[nH]c2ccccc12)C(=O)O)Cc1ccccc1` [compound 106], the EC50 in assay [1] and in assay [2] was 1 to 10 nM in each case.

Values taken from patent US10278957B2, “Opioid agonist peptides and uses thereof” (Protagonist Therapeutics, Inc., priority 2017, dated 2019).
